Measurements: patent publication EP3354264A1, “PROPHYLAXIS AND TREATMENT OF NEISSERIA GONORRHOEAE EYE INFECTION” (Kingston University Higher Education Corporation, priority 2017, dated 2018)
Converted amounts (≈) assume the structure as drawn. “And” between values parts separate entries of the source, which are not always exact repeats. Equal entries are not always repeated. Where two headings read alike, the source gives them in different places.

Tests used:
Chorioallantoic Membrane = conditions: organic acids 1 mg/ml, sodium hydroxide 0.1M; for Total Score: number
Method: The HET-CAM was performed according to Alany et al., (2006), J Control Release 111: 145-152. Fertilised white leghorn eggs were purchased from Henry Stewart & Co. Ltd (Fakenham, Norfolk, UK) and delivered to Kingston University. All eggs were checked for damage and incubated at 37°C with 60-70 % relative humidity. At day 4 the eggs were removed from their shells and placed in incubation chambers. At day 9, the CAMs were tested. This was done by applying 200 µl of the testing material and recording results at 30, 120, and 300 seconds. At each of these time-points the effect of the substance on the CAM was evaluated by assessing them against the scoring system (Vanerp YHM, et al., (1990), Toxicology in Vitro 4: 267-269).

Bovine eyes = conditions: test compounds 1 mM in saline, controls as labelled, exposure 30 seconds
Method: Bovine eyes were collected from a local slaughter house (ABP, Guildford, Surrey, UK) and were transported in cold saline for testing at the laboratory. Each eye was first examined for signs of damage before use. The test was conducted according to Abdelkader et al., (2012), Int J Pharm 432: 1-10. The exposure time of the test substances was 30 seconds. The selected bactericidal compounds were tested at a concentration of 1 mM in saline. Overall, the concentration of ethanol carry-over from the stock of the organic acids was therefore 1 %. […] The test area of the cornea was then washed with 10 ml saline.
Corneal damage to the test area was assessed by fluorescein staining and examined under a cobalt blue filter. […] Each of the seven candidates were tested in triplicate, each test was performed on a separate day from a different batch of eye balls. Corneal histology was done as Abdelkader et al., (2012), Int J Pharm 432: 1-10 by evaluating the damage to the epithelial layer and stroma of the cornea after Haematoxylin and Eosin staining.

[1] = tested on: Neisseria gonorrhoeae strain NCCP11945; experiment: Growth inhibition screen of organic acids; assay type: cell-based; conditions: strain NCCP11945, in vitro, 1 mM
Method: (§1) The well characterised N. gonorrhoeae strain NCCP11945 (Chung GT et al. (2008) Complete genome sequence of Neisseria gonorrhoeae NCCP11945. Journal of Bacteriology 190: 6035-6036) was used in the screening stage of this experiment. Eight isolates that were obtained from Public Health England from various European locations were used in the log reduction assays. All isolates were first cultured for 24 hours prior to testing by plating on GC solid medium (Oxoid Limited, Hampshire, UK) with Kellogg supplements and incubating at 37 °C, 5% CO2 (Kellogg DS, Jr., et al., (1963), J Bacteriol 85: 1274-1279).
(§2) A full list of all the organic acids tested in this study is in Table 1. The tested compounds include saturated and unsaturated fatty acids, monoglycerides, dicarboxylic acids, and fatty acid sodium salts. All compounds investigated were resuspended at a concentration of 100 mM in ethanol unless stated. All chemicals were obtained from Sigma-Aldrich (Poole, Dorset, UK).
Other organic acids were also active at this concentration, as noted in Table 1.

[2] = tested on: Neisseria gonorrhoeae strain NCCP11945; experiment: Measurement of bactericidal action (log reduction); assay type: cell-based; conditions: for log reduction at 1000 µM: Neisseria gonorrhoeae
Method: as §1, §2
(§3) Log reductions were done using the same method as in Bergsson et al., (1999), Antimicrob Agents Chemother 43: 2790-2792. Briefly, cells were suspended in GC broth (18 g/L GC Base (Oxiod, Limited) with added defined supplements) to an optical density of 0.3 at 520 nm which is approximately equivalent to 107 - 108 cells per millilitre (Macfarlane DE et al. (1980) Improved media for the culture of Neisseria gonorrhoeae. J Med Microbiol 13: 597-607). Five hundred microliters of the suspension was then added to 5 µl of the 100 mM stocks to give a final concentration of 1 mM. A negative control was also done to calculate the reduction in bacterial titre by adding 500 µl to 5 µl ethanol. The tubes were then mixed at room temperature for two minutes and immediately diluted in a 10 fold dilution series down to 10-4. The dilutions were plated by spreading 10 µl on a quarter of a plate and 100 µl of the neat solution was also plated. Plates were incubated at 37 °C for 48 hours. All samples were plated in duplicate. A reduction in viable cell count by more than 4 log10 was deemed to be bactericidal and was selected for further investigation. Bactericidal compounds were then tested at concentrations of 0.75, 0.5, and 0.25 mM (0.125 mM was also used in some potent compounds) to find the minimum bactericidal concentration. Additional testing at lower concentrations was also done on the eight clinical isolates of European origin.

in vitro = assay type: cell-based, bovine; conditions: red blood cells
Method: (§4) Whole bovine blood was obtained from a local slaughter house (ABP, Guildford, Surrey, UK), adding 90 ml blood to 10 ml of 110 mM tri-sodium citrate anticoagulant. RBCs were isolated the same day. The RBCs were washed by three repeats of centrifugation (1,500 x g for 10 minutes) and resuspension in PBSG. Testing was done following European Union Reference Laboratory for alternatives to animal testing (EURL-ECVAM) guidelines (Lewis RW (2010) DB-ALM Protocol No. 99: Red blood cell (RBC) Test System. EURL ECVAM). The organic acids were made up in DMSO and diluted to a DMSO concentration maximum of 10 % (v/v). Samples were shaken at room temperature for 1 hour and then centrifuged at 10,000 rpm for 2 minutes. An aliquot of 750 µl of the supernatant was taken and absorbance at […] tested.

RBCs = experiment: in vitro; assay type: cell-based, bovine
Method: as §4

[3] = tested on: Neisseria gonorrhoeae strain NCCP11945; experiment: Log reduction in artificial tear fluid; assay type: cell-based; conditions: two minute exposure
Method: Artificial tear fluid was made as in Mirejovsky et al., Optometry and Vision Science, (1991), 68: 858-864. […] Neisseria gonorrhoeae strain NCCP11945 was used in these experiments. As the previous log reductions, […] were suspended in GC broth. The cell suspension was centrifuged to remove the culture medium and the bacteria resuspended in the tear fluid. This was then added to the concentrated organic acid candidates. The cells were then counted again after two minute exposure to estimate any reduction due to the exposure to the fatty acid.
In a first experiment, the artificial tear fluid formulation includes calcium chloride to mimic the calcium in natural tears. As shown by the results in Figure 8, the anti-gonococcal properties of myristoleic acid (C14:1cΔ9), palmitoleic acid (C16:1cΔ9), linolenic acid (C18:3cΔ9,12,15), and monocaprin(C10) are retained in the artificial tear fluid formulation containing calcium chloride.
In a second experiment, calcium chloride was omitted from the artificial tear fluid formulation. The results in Figure 9 indicate that the anti-gonococcal properties of lauric acid (C12:0), tridecanoic acid (C13:0), and sodium dodecanoate were retained in the artificial tear fluid formulation without.

[4] = tested on: panel of nine N. gonorrhoeae isolates (strain NCCP11945 and eight isolates from Public Health England); experiment: Minimum bactericidal concentration by log reduction, panel of isolates; assay type: cell-based; conditions: Neisseria gonorrhoeae, 2 min, read-out: Minimum bactericidal concentration
Method: as §1, §3
As shown by the results in Table 3 which presents data on the log reductions of bacterial cell counts, against a panel of nine N. gonorrhoeae isolates (strain NCCP11945 and eight isolates from Public Health England), myristoleic acid (C14:1cΔ9), palmitoleic acid (C16:1cΔ9), linolenic acid (C18:3cΔ9,12,15), and monocaprin (C10) have a minimal bactericidal concentration, defined as the lowest concentration tested to give an average 4 log10 reduction in bacterial count after a two minute exposure, of 0.5 mM. Against a panel of nine N. gonorrhoeae isolates, lauric acid (C12:0), tridecanoic acid (C13:0), and sodium dodecanoate have a minimal bactericidal concentration of 0.75 mM.

[5] = tested on: N. gonorrhoeae strain NCCP11945; experiment: Cell culture infection model (primary cornea epithelial cells); assay type: cell-based; conditions: 1 mM, added 90 minutes after infection; Figure 10
Method: Primary cornea epithelial cells were obtained from Life Technologies (Paisley, Glasgow, UK) and grown in Keratinocyte serum free medium (Life Technologies), at 37 °C with 5 % CO2 until 80 % confluent. The cells were then trypsin treated, washed, added to 24 welled plates and incubated for a further 24 hours. The medium was replaced and a fresh P+, Opa+ cells N. gonorrhoeae strain NCCP11945 suspension (approximately 10^7 CFU/ml) was added to the cells to get a multiplicity of infection of 10. All samples were done in duplicate. Monocaprin (1 mM, 0.5 mM, 0.25 mM, and 0.125 mM) was either added directly after the bacteria or after 90 minutes. […] The total time of the infection was three hours. The cells were washed five times with 1 ml PBS for each well. The wells were treated with warmed 1 % saponin in PBS and incubated for 10 minutes at 37 °C. After this, 900 µl GC broth was added and log reductions calculated as above. The CFUs of the drug exposed wells were compared to the CFU counts of the Infection controls to estimate the log reduction caused by the action of the monocaprin. Comparisons of the log reductions at different drug administration times at given concentrations was analysed in an unpaired t test using GraphPad Prism (version 6.01).

Streptococcus pneumoniae = conditions: at the concentration used for the antigonococcal ocular formulation; cited from earlier work
Neisseria meningitidis = conditions: at the concentration used for the antigonococcal ocular formulation; cited from earlier work
Pseudomonas aeruginosa = conditions: at the concentration used for the antigonococcal ocular formulation; cited from earlier work
Staphylococcus aureus = conditions: at the concentration used for the antigonococcal ocular formulation; cited from earlier work
[6] = NCCP11945, 2 min, read-out: Log reduction of Neisseria gonorrhoeae, strain NCCP11945, 1 mM, 2 minutes
[7] = strain NCCP11945, 1 mM, 2 minutes
[8] = bovine RBCs, shaken 1 hour at room temperature, read-out: H50
[9] = bovine RBCs, shaken 1 hour at room temperature, read-out: H50 (mg/L)
[10] = at their minimum bactericidal concentration
[11] = artificial tear fluid without calcium chloride, Figure 9
[12] = 2 min, strain NCCP11945, 1 mM, 2 minutes, read-out: Log reduction of Neisseria gonorrhoeae
[13] = lowest concentration tested giving an average 4 log10 reduction after two minute exposure, nine isolates

HC50 at 1 h (in vitro; [8]) [mM] | HC50 at 1 h (in vitro; [9]) [mg/L] | Compound | Total Score (Chorioallantoic Membrane) | Inhibits growth of Neisseria gonorrhoeae [1] | log reduction at 1000 µM [2, 6] | Log reduction of Neisseria gonorrhoeae [2, 7] | RBC lysis assay prediction of irritation (RBCs; [10]) | anti-gonococcal properties in artificial tear fluid [3, 11] | MBC [4] [µM] | log reduction at 1000 µM [2, 12] | MBC [4, 13] [µM] | RBC lysis assay prediction of irritation (RBCs) | other results
 |  | CC(C)=O [Acetone, reference compound] | 14 |  |  |  |  |  |  |  |  |  | Total Score (irritation grade in words) (Chorioallantoic Membrane): Severe; BCOP classification (Bovine eyes): Strong irritant
1.6 to 2.4 | 400 to 600 | CCCCCCCCCC(=O)OCC(O)CO (centres unmarked) [Monocaprin C10, Monocaprin] |  | Yes |  | able to cause a log reduction | not irritating |  |  | > 6 | 500 (≈ 123 µg/mL) |  | kill of Neisseria gonorrhoeae that has infected human epithelial cells [5]: able to kill; bactericidal to Streptococcus pneumoniae (Streptococcus pneumoniae): bactericidal; Inhibits growth of Neisseria gonorrhoeae ([1]; listed as monocaprin): able to inhibit growth; bactericidal to Neisseria meningitidis (Neisseria meningitidis): bactericidal; bactericidal to Pseudomonas aeruginosa (Pseudomonas aeruginosa): bactericidal; anti-gonococcal properties in artificial tear fluid ([3]; artificial tear fluid containing calcium chloride, Figure 8): retained; bactericidal to Staphylococcus aureus (Staphylococcus aureus): bactericidal
 |  | CCCCCCCCCCCC(=O)[O-].[Na+] [Sodium dodecanoate] |  | Yes | > 6 | able to cause a log reduction |  | retained | 750 |  |  | not irritating | Inhibits growth of Neisseria gonorrhoeae ([1]; listed as sodium dodecanoate): able to inhibit growth; HC50 at 1 h (in vitro; bovine): 200 µg/mL to 400 µg/mL and 900 µM to 1.8 mM
> 4.67 | > 1000 | CCCCCCCCCCCCC(=O)O [Tridecanoic acid 13:0, Tridecanoic acid] |  | Yes |  | able to cause a log reduction |  | retained |  | > 6 | 750 (≈ 161 µg/mL) | not irritating | Inhibits growth of Neisseria gonorrhoeae ([1]; listed as tridecanoic acid): able to inhibit growth

Compound | HC50 at 1 h (in vitro; [8]) [mM] | HC50 at 1 h (in vitro; [9]) [mg/L] | Total Score (Chorioallantoic Membrane) | Inhibits growth of Neisseria gonorrhoeae [1] | log reduction at 1000 µM [2, 6] | Log reduction of Neisseria gonorrhoeae [2, 7] | RBC lysis assay prediction of irritation (RBCs; [10]) | anti-gonococcal properties in artificial tear fluid [3, 11] | MBC [4] [µM] | log reduction at 1000 µM [2, 12] | MBC [4, 13] [µM] | RBC lysis assay prediction of irritation (RBCs) | other results
CCCCCCCCCCCC(=O)O [Lauric acid 12:0, dodecanoic acid] | 1 to 2 | 200 to 400 | 0 | Yes | > 6 | able to cause a log reduction | not irritating | retained | 750 (≈ 150 µg/mL) |  |  |  | Total Score (irritation grade in words) (Chorioallantoic Membrane; listed as Lauric acid): None; BCOP classification (Bovine eyes; listed as Lauric acid): Non-irritant; BCOP classification (Bovine eyes; listed as lauric acid): will not cause irritation; Inhibits growth of Neisseria gonorrhoeae ([1]; listed as lauric acid): able to inhibit growth
